Assay results published in patent publication US20210023065A1, “AMPHIPHILIC THIOL COMPOUNDS AND USES THEREOF” (THE REGENTS OF THE UNIVERSITY OF CALIFORNIA, priority 2018, published 2021).

Tests used:
Format in all cases: cell-based
flotillin-2 = molecular target: T1, flotillin-2 (Homo sapiens, UniProt Q14254); test: Acyl resin-assisted capture detection of flotillin-2 palmitoylation in HeLa cells; conditions: 1.25 μmol/10^7 cells, relative to vehicle
T1 construct: we detected the palmitoylation levels of eight known palmitoylated proteins after treatment with 1; endogenous in cells; host or cells: HeLa
T1 sequence (Q14254 1-428): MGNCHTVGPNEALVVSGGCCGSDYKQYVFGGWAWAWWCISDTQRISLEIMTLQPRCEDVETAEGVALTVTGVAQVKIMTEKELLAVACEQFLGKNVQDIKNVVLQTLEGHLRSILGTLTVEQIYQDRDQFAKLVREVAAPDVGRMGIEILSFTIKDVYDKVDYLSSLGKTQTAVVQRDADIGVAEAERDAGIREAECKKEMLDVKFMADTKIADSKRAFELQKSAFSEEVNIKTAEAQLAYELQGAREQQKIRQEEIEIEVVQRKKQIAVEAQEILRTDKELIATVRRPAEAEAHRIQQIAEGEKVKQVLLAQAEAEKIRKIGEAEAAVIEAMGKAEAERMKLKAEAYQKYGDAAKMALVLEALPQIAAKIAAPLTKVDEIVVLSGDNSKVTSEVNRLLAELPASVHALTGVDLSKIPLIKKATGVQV
Description: (§1) HeLa cells were grown to confluency in 10 cm plates. Stock solutions of compounds were prepared in DMSO as before and diluted to the final indicated concentration in 5.5 mL of OptiMEM media before adding to cells. Cells were incubated at 37° C. for 20 min and then media removed and 3 mL of HBSS added to each plate. Cells were detached using a cell scraper, pelleted by centrifugation at 1,000 rcf for 5 min and the pellet processed using a CAPTUREome S-Palmitoylated Protein Kit (Badrilla, UK) according to the manufacturer's protocol. Samples were resolved by electrophoresis using 4-20% SDS-polyacrylamide gels (Bio-Rad) under denaturing and reducing conditions. Proteins were then electrotransferred to a PVDF membrane (Bio-Rad). […]
(§2) Assays were performed in 3 biological replicates. […] Western blots were analyzed using ImageJ^1. […]

lyric/metadherin = molecular target: T2, lyric/metadherin (Homo sapiens, UniProt Q86UE4); test: Acyl resin-assisted capture detection of lyric/metadherin palmitoylation in HeLa cells; conditions: 1.25 μmol/10^7 cells, relative to vehicle
T2 construct: we detected the palmitoylation levels of eight known palmitoylated proteins after treatment with 1; endogenous in cells; host or cells: HeLa
T2 sequence (Q86UE4 1-582): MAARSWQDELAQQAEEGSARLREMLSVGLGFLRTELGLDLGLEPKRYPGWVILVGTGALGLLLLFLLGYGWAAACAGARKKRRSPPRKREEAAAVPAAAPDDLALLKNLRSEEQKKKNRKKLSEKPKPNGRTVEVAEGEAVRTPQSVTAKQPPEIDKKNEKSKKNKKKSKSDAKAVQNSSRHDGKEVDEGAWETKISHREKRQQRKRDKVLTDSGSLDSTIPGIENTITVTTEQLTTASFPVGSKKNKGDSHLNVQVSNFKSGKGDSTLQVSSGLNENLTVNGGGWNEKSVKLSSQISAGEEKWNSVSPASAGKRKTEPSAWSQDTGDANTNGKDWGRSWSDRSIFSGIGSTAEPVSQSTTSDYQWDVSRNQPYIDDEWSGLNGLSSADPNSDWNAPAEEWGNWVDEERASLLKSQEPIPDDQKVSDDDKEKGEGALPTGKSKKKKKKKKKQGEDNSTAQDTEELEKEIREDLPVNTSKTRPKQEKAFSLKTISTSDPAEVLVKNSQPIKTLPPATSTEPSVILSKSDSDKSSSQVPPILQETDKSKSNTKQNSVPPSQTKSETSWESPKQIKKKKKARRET
Description: as §1, §2

HeLa cells = test: MS detection of AMD product 4 in HeLa cell lipid extracts; conditions: 200 μM 1 with 400 μM TCEP, 20 min
Description: HeLa cells were grown to confluency in two 6 cm plates. Once confluent, media was removed and cells washed 1× with HBSS. Stock solutions were prepared as before. From these stocks, solutions of 200 μM 1 (with 400 μM TCEP) or 400 μM TCEP were prepared in OptiMEM media. To each plate was added 3 mL OptiMEM+400 μM TCEP or OptiMEM+200 μM 1 (with 400 μM TCEP). Cells were incubated at 37° C. for 20 min and then media removed and 3 mL of HBSS added to each plate. Cells were detached using a cell scraper, pelleted by centrifugation at 1,000 rcf for 5 min and the pellet subjected to a lipid extraction using the Bligh and Dyer method.^3 Lipid extracts were analyzed for the presence of the AMD product palmityl-N-L-Cys-Oct (4) using reverse phase chromatography on an HP 1100 LC station to a Thermo LCQdeca-MS running in ESI Positive Ion Mode. MS/MS analysis was performed on the [M+H]^+ peak of 4 (m/z 471) then selected reaction monitoring on the fragmentation peak (m/z 130) (FIG. 9).

calnexin = molecular target: T3, calnexin (Homo sapiens, UniProt P27824); test: Acyl resin-assisted capture detection of calnexin palmitoylation in HeLa cells; conditions: 1.25 μmol/10^7 cells, relative to vehicle
T3 construct: we detected the palmitoylation levels of eight known palmitoylated proteins after treatment with 1; endogenous in cells; host or cells: HeLa
T3 sequence (P27824 21-592): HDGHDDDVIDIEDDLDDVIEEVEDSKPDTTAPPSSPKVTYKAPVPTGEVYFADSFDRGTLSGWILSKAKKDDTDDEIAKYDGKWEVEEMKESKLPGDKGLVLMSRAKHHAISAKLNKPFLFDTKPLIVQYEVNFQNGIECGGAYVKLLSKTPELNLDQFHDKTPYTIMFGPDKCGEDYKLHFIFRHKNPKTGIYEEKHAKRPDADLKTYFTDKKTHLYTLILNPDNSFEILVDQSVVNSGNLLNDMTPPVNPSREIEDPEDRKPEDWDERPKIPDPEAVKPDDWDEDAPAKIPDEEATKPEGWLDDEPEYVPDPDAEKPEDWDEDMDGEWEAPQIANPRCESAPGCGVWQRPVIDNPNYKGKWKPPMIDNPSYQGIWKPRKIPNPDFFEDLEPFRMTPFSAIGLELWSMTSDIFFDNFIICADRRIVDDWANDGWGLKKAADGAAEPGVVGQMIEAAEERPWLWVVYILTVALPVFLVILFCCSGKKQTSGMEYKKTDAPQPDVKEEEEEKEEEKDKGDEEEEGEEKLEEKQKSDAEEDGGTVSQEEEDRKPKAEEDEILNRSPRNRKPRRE
Description: as §1, §2

- reduction of palmitoylation level of flotillin-2 (flotillin-2): 19-40%
- reduction of palmitoylation level of lyric/metadherin (lyric/metadherin): > 80%
- reduction of palmitoylation level of calnexin (calnexin): 19-40%
SMILES: CCCCCCCCNC(=O)[C@@H](N)CS [compound 1, H2N-L-Cys-Oct]
- detection of N-acylated AMD product 4 in lipid extract (LC MS/MS) (HeLa cells): detected the expected AMD product, 4
